Measured values taken from the supplement of paper PMC6045584.
± gives the standard deviation of the averaged measurements.

Tests used:
CANERTINIB = compound: C=CC(=O)Nc1cc2c(Nc3ccc(F)c(Cl)c3)ncnc2cc1OCCCN1CCOCC1 [CANERTINIB]; test: surviving fraction relative to DMSO-only wells; higher = less growth inhibition; details: exposure time: 5 days
Summary of the method: (§1)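 Each tumour cell line was screened three times, and only lines with replicate Pearson r >0.7 and median Z' >0.3 were kept. Cells in log phase were seeded at 250–500 per well in 384-well plates, left 24 hours, then exposed continuously for five days to inhibitors at 0.5, 1, 5, 10, 50, 100, 500 and 1000 nM. Viability was read as CellTiter-Glo luminescence, with surviving fraction normalised to the median of DMSO-only wells.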

BI-2536 = compound: CC[C@@H]1C(=O)N(C)c2cnc(Nc3ccc(C(=O)NC4CCN(C)CC4)cc3OC)nc2N1C1CCCC1 [BI-2536]; test: as above; details: exposure time: 5 days
Summary of the method: as §1

Row | Test System | surviving fraction (CANERTINIB; 0.5 nM) | surviving fraction (CANERTINIB; 1 nM) | surviving fraction (CANERTINIB; 5 nM) | surviving fraction (CANERTINIB; 10 nM) | surviving fraction (CANERTINIB; 50 nM) | surviving fraction (CANERTINIB; 100 nM) | surviving fraction (CANERTINIB; 500 nM) | surviving fraction (CANERTINIB; 1000 nM) | surviving fraction (BI-2536; 0.5 nM) | surviving fraction (BI-2536; 1 nM) | surviving fraction (BI-2536; 5 nM) | surviving fraction (BI-2536; 10 nM) | surviving fraction (BI-2536; 50 nM) | surviving fraction (BI-2536; 100 nM) | surviving fraction (BI-2536; 500 nM) | surviving fraction (BI-2536; 1000 nM)
1 | MFM223 BREAST | 0.817 ± 0.075 | 0.898 ± 0.12 | 0.84 ± 0.14 | 0.808 ± 0.01 | 0.958 ± 0.077 | 1 ± 0.034 | 0.874 ± 0.013 | 0.794 ± 0.029 | 0.818 ± 0.041 | 0.338 ± 0.017 | 0.0768 ± 0.0068 | 0.0932 ± 0.0063 | 0.137 ± 0.012 | 0.148 ± 0.012 | 0.141 ± 0.011 | 0.106 ± 0.016
2 | MHM BONE | 0.981 ± 0.051 | 0.983 ± 0.038 | 1.03 ± 0.054 | 1 ± 0.051 | 0.9877 ± 0.0076 | 0.953 ± 0.021 | 0.903 ± 0.019 | 0.863 ± 0.018 | 1.02 ± 0.021 | 0.993 ± 0.017 | 1.03 ± 0.023 | 0.831 ± 0.058 | 0.404 ± 0.013 | 0.327 ± 0.026 | 0.248 ± 0.0076 | 0.258 ± 0.015
3 | NCIH441 LUNG | 0.951 ± 0.059 | 1.02 ± 0.02 | 1.01 ± 0.029 | 1.03 ± 0.07 | 0.918 ± 0.1 | 0.923 ± 0.0095 | 0.736 ± 0.098 | 0.635 ± 0.086 | 1.03 ± 0.16 | 0.859 ± 0.11 | 0.571 ± 0.057 | 0.499 ± 0.041 | 0.502 ± 0.03 | 0.507 ± 0.022 | 0.36 ± 0.028 | 0.228 ± 0.01
4 | OS25HAL BONE | 0.898 ± 0.0053 | 0.879 ± 0.013 | 0.886 ± 0.003 | 0.893 ± 0.042 | 1.014 ± 0.0056 | 1.03 ± 0.019 | 1.01 ± 0.072 | 0.981 ± 0.092 | 1.003 ± 0.006 | 0.933 ± 0.064 | 0.0997 ± 0.016 | 0.0533 ± 0.0029 | 0.0483 ± 0.0015 | 0.0337 ± 0.004 | 0.0317 ± 0.0023 | 0.037 ± 0.002
5 | OSHN BONE | 0.898 ± 0.036 | 0.904 ± 0.028 | 0.932 ± 0.035 | 0.91 ± 0.019 | 1.03 ± 0.043 | 1.03 ± 0.016 | 1.02 ± 0.0035 | 1.03 ± 0.028 | 1.09 ± 0.019 | 1.075 ± 0.0046 | 0.874 ± 0.072 | 0.027 ± 0.001 | 0.0297 ± 0.00058 | 0.022 ± 0.001 | 0.0237 ± 0.0021 | 0.0237 ± 0.0011
6 | PCI30 HEADNECK | 0.962 ± 0.047 | 0.879 ± 0.058 | 0.866 ± 0.042 | 0.641 ± 0.032 | 0.485 ± 0.03 | 0.47 ± 0.017 | 0.323 ± 0.034 | 0.228 ± 0.028 | 0.988 ± 0.027 | 0.689 ± 0.054 | 0.128 ± 0.015 | 0.149 ± 0.01 | 0.286 ± 0.029 | 0.337 ± 0.02 | 0.357 ± 0.0049 | 0.255 ± 0.011
7 | SAOS2 BONE | 0.853 ± 0.028 | 0.85 ± 0.042 | 0.877 ± 0.06 | 0.818 ± 0.015 | 1.02 ± 0.038 | 1.04 ± 0.12 | 0.815 ± 0.026 | 0.703 ± 0.063 | 1.03 ± 0.036 | 0.875 ± 0.025 | 0.083 ± 0.0052 | 0.0753 ± 0.0023 | 0.146 ± 0.0046 | 0.194 ± 0.015 | 0.129 | 0.075
8 | SCC003 HEADNECK | 0.691 ± 0.065 | 0.867 ± 0.032 | 0.897 ± 0.054 | 0.775 ± 0.014 | 0.899 ± 0.075 | 0.8 ± 0.075 | 0.718 ± 0.036 | 0.434 ± 0.061 | 1.06 ± 0.12 | 0.93 ± 0.027 | 0.467 ± 0.059 | 0.412 ± 0.066 | 0.596 ± 0.074 | 0.582 ± 0.033 | 0.381 ± 0.019 | 0.275 ± 0.028
9 | SCC36 HEADNECK | 0.715 ± 0.044 | 0.747 ± 0.059 | 0.645 ± 0.054 | 0.753 ± 0.016 | 0.741 ± 0.039 | 0.747 ± 0.045 | 0.328 ± 0.023 | 0.329 ± 0.035 | 0.945 ± 0.088 | 0.897 ± 0.19 | 0.189 ± 0.011 | 0.191 ± 0.01 | 0.291 ± 0.04 | 0.24 ± 0.018 | 0.114 ± 0.0061 | 0.07 ± 0.0053
10 | SCC47 HEADNECK | 0.828 ± 0.025 | 0.921 ± 0.088 | 0.881 ± 0.048 | 0.889 ± 0.028 | 0.9577 ± 0.0083 | 0.805 ± 0.032 | 0.681 ± 0.015 | 0.432 ± 0.044 | 1.05 ± 0.095 | 1.01 ± 0.066 | 0.455 ± 0.013 | 0.367 ± 0.034 | 0.403 ± 0.046 | 0.464 ± 0.045 | 0.437 ± 0.018 | 0.356 ± 0.02
11 | SG27 HEADNECK | 1.03 ± 0.15 | 1.06 ± 0.054 | 1.03 ± 0.067 | 0.883 ± 0.1 | 1.01 ± 0.1 | 0.999 ± 0.028 | 0.96 ± 0.13 | 0.894 ± 0.08 | 0.99 ± 0.077 | 1.16 ± 0.1 | 1.04 ± 0.06 | 1.03 ± 0.098 | 1 ± 0.076 | 1 ± 0.1 | 0.391 ± 0.11 | 0.212 ± 0.068
12 | SG28 HEADNECK | 0.824 ± 0.055 | 0.803 ± 0.046 | 0.627 ± 0.081 | 0.621 ± 0.089 | 0.642 ± 0.0092 | 0.498 ± 0.059 | 0.364 ± 0.073 | 0.366 ± 0.021 | 1.19 ± 0.14 | 1.063 ± 0.0017 | 0.864 ± 0.04 | 0.87 ± 0.046 | 0.961 ± 0.11 | 0.687 ± 0.064 | 0.478 ± 0.084 | 0.279 ± 0.053
13 | SG31 HEADNECK | 0.935 ± 0.084 | 0.907 ± 0.035 | 0.811 ± 0.043 | 0.688 ± 0.15 | 0.63 ± 0.12 | 0.581 ± 0.086 | 0.588 ± 0.045 | 0.498 ± 0.1 | 1.09 ± 0.11 | 1.27 ± 0.057 | 0.77 ± 0.099 | 0.603 ± 0.03 | 0.531 ± 0.031 | 0.573 ± 0.029 | 0.49 ± 0.034 | 0.438 ± 0.064
